Like-named read-outs stand apart in the source and are kept apart here.
Key:
[1] = molecular target: T1, GluK2 kainate receptor (Rattus norvegicus, UniProt P42260, I567V/Y571C); experiment: cryo-EM structures (four BPAM344 molecules per tetramer in all four structures)
T1 construct: gene Grik2; full-length rat GluK2 (GenBank CAA77778.1), V567, C571, Q621 (Q/R site unedited); LBD-TMD modelled (S429-R874); homotetramer

[2] = molecular target: T2, GluK2 kainate receptor (Rattus norvegicus, UniProt P42260); experiment: whole-cell patch clamp in HEK293 cells expressing GluK2 (agonist, with ConA treatment); format: cell-based
T2 construct: gene Grik2; full-length rat GluK2, Q621 (Q/R site unedited), homotetramer

[3] = molecular target: T1, GluK2 kainate receptor; experiment: cryo-EM structure ([…] Å, with BPAM344); IC50 from whole-cell patch clamp in HEK293 cells; format: cell-based
[4] = molecular target: T1, GluK2 kainate receptor; experiment: as above; format: cell-based; remark: listed apart in the source
[5] = molecular target: T1, GluK2 kainate receptor; experiment: as above; format: cell-based; remark: listed apart in the source
[6] = molecular target: T1, GluK2 kainate receptor; experiment: as above; format: cell-based; remark: listed apart in the source

T1 sequence (P42260 32-908 I567V/Y571C): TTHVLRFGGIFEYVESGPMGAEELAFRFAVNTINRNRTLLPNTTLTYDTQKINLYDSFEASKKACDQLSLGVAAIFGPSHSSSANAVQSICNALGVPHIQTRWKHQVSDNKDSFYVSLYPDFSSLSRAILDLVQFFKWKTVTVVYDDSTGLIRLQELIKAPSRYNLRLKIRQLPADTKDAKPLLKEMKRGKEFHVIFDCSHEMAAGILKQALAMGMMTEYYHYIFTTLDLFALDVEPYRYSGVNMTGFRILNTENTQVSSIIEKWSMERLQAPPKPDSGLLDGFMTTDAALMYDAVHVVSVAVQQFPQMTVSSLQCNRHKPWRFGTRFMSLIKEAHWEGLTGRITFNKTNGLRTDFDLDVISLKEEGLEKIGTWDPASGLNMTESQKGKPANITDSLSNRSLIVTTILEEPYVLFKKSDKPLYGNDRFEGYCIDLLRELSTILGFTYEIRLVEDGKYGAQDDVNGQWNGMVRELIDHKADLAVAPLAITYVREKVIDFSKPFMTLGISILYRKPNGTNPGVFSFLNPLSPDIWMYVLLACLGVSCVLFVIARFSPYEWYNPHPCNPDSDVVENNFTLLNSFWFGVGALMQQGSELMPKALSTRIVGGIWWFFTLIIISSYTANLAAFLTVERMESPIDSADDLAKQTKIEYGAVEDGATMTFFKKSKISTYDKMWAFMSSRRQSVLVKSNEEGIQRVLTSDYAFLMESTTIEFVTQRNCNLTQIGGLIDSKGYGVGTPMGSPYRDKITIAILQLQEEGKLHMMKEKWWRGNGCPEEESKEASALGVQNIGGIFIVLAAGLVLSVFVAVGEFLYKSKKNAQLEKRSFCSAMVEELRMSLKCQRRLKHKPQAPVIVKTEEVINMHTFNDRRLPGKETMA
T2 sequence (P42260 32-908): as the sequence (P42260 32-908 I567V/Y571C) above, with V536I, C540Y counted along it

O=S1(=O)NCN(C2CC2)c2ccc(F)cc21 [BPAM, BPAM344]
cryo-EM structures (four BPAM344 molecules per tetramer in all four structures) [1]: improved map quality, with well-resolved densities for BPAM, carbohydrates, and annular lipids

C=C(C)[C@H]1CN[C@H](C(=O)O)[C@H]1CC(=O)O [KA, kainic acid]
whole-cell patch clamp in HEK293 cells expressing GluK2 (agonist, with ConA trea) [2]: the agonist kainic acid (KA) elicited large inward currents with a steady-state value of IControl

O=C(CCc1ccc(O)c(O)c1)NCCCNCCCCNCCCNC(=O)CCc1ccc(O)c(O)c1 [KukoA, Kukoamine A]
IC50 [3]: 704 ± 31 µM

NCCCNCCCCNCCC(=O)NCCCCCNC(=O)[C@@H](CC(N)=O)NC(=O)Cc1c[nH]c2ccccc12 [NpTx-8]
IC50 [4]: 510 ± 10 nM

CCCC(=O)N[C@H](Cc1ccc(O)cc1)C(=O)NCCCCCCCNCCCCN [PhTx-74]
IC50 [5]: 7.53 ± 0.35 µM

NCCCNCCCCNCCCN [SPM, spermine]
IC50 [6]: 7.77 ± 0.51 mM
